Test [1] is described as follows: Inhibition of thrombin-induced platelet aggregation in human.
Test [2] is described as follows: Noradrenaline induced vasorelaxant activity in intact rat aortic rings.

`COc1cc(OC)cc(-c2cc3ccc(O)cc3oc2=O)c1` [3-(3,5-dimethoxyphenyl)-7-hydroxy-2H-chromen-2-one]: the concentration for half-maximal inhibition (IC50) in test [1] worked out at 105 µM; in test [2] it was 39.8 µM.

`Oc1ccc(/C=C/c2cc(O)cc(O)c2)cc1` [5-[(E)-2-(4-hydroxyphenyl)ethenyl]benzene-1,3-diol] returned an IC50 in test [2] of 19.9 µM. For the molecule `O=c1oc2c(O)cc(O)cc2cc1-c1cc(O)cc(O)c1` [6,8-dihydroxy-3-(3',5'-dihydroxyphenyl)coumarin], the 50% inhibitory concentration (IC50) worked out at 285 µM in test [1] and 95.5 µM in test [2]. For `COc1cc(OC)cc(-c2cc3cc(OC)cc(OC)c3oc2=O)c1` [6,8-dimethoxy-3-(3',5'-dimethoxyphenyl)coumarin] the same measures were above 100 µM and above 100 µM. On the same counts, the results for `O=c1oc2ccc(O)cc2cc1-c1cc(O)cc(O)c1` [6-hydroxy-3-(3',5'-dihydroxyphenyl)coumarin] are 30.1 µM and 10.6 µM. With `COc1cc(OC)cc(-c2cc3cc(OC)ccc3oc2=O)c1` [6-methoxy-3-(3',5'-dimethoxyphenyl)coumarin], the IC50 was above 25 µM in test [1] and 42.6 µM in test [2].

As to `O=c1oc2cc(O)ccc2cc1-c1cc(O)cc(O)c1` [7-hydroxy-3-(3',5'-dihydroxyphenyl)coumarin], the IC50 in test [1] was found to be 62.3 µM; in test [2], 38.9 µM. Regarding `COc1cc(OC)cc(-c2cc3ccc(OC)cc3oc2=O)c1` [7-methoxy-3-(3',5'-dimethoxyphenyl)coumarin], the figures for the IC50 in test [1] and in test [2] were above 100 µM and 52.5 µM, respectively.

For orientation: IC50 means the concentration needed to halve the response being measured.
